The target of experiment [1] is T1, Protein cereblon/ALK tyrosine kinase receptor/Nucleophosmin (Homo sapiens, UniProt Q9UM73+P06748+Q96SW2). Briefly: PROTAC activity at CRBN/NPM/ALK in human KARPAS-299 cells incubated for 48 hrs by Western blotting analysis. It counts as cell-based. In general terms: A western blot detects proteins with antibodies after separation by electrophoresis.
Experiment [2] deals with T1, Protein cereblon/ALK tyrosine kinase receptor/Nucleophosmin. Briefly: PROTAC activity at CRBN/NPM/ALK in human KARPAS-299 cells assessed as maximal degradation of protein at 1 uM incubated for 48 hrs by Western blotting analysis relative to control. It counts as cell-based.
Target sequence in this assay (P06748 whole entry partner): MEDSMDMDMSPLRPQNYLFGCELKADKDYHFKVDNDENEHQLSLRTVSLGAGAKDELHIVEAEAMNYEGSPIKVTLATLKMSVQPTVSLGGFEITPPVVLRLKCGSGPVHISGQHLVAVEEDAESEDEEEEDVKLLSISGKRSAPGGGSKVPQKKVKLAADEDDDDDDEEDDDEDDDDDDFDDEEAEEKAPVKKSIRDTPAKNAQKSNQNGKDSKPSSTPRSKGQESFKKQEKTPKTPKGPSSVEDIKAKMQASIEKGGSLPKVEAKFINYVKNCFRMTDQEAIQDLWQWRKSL
Target sequence in this assay (Q96SW2 whole entry partner): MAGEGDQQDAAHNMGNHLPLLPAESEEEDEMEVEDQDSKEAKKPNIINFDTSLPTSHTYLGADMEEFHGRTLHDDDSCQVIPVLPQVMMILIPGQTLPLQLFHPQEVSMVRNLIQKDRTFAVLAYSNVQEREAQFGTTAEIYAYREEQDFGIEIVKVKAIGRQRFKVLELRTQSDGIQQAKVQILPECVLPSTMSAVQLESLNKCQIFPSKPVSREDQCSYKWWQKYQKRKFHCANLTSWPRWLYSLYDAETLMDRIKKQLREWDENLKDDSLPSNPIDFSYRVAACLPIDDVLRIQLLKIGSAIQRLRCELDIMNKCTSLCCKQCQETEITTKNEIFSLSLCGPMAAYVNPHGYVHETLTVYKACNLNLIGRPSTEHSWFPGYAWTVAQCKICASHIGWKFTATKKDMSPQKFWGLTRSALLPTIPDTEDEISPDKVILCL
Target sequence in this assay (Q9UM73 19-1620 limits assumed): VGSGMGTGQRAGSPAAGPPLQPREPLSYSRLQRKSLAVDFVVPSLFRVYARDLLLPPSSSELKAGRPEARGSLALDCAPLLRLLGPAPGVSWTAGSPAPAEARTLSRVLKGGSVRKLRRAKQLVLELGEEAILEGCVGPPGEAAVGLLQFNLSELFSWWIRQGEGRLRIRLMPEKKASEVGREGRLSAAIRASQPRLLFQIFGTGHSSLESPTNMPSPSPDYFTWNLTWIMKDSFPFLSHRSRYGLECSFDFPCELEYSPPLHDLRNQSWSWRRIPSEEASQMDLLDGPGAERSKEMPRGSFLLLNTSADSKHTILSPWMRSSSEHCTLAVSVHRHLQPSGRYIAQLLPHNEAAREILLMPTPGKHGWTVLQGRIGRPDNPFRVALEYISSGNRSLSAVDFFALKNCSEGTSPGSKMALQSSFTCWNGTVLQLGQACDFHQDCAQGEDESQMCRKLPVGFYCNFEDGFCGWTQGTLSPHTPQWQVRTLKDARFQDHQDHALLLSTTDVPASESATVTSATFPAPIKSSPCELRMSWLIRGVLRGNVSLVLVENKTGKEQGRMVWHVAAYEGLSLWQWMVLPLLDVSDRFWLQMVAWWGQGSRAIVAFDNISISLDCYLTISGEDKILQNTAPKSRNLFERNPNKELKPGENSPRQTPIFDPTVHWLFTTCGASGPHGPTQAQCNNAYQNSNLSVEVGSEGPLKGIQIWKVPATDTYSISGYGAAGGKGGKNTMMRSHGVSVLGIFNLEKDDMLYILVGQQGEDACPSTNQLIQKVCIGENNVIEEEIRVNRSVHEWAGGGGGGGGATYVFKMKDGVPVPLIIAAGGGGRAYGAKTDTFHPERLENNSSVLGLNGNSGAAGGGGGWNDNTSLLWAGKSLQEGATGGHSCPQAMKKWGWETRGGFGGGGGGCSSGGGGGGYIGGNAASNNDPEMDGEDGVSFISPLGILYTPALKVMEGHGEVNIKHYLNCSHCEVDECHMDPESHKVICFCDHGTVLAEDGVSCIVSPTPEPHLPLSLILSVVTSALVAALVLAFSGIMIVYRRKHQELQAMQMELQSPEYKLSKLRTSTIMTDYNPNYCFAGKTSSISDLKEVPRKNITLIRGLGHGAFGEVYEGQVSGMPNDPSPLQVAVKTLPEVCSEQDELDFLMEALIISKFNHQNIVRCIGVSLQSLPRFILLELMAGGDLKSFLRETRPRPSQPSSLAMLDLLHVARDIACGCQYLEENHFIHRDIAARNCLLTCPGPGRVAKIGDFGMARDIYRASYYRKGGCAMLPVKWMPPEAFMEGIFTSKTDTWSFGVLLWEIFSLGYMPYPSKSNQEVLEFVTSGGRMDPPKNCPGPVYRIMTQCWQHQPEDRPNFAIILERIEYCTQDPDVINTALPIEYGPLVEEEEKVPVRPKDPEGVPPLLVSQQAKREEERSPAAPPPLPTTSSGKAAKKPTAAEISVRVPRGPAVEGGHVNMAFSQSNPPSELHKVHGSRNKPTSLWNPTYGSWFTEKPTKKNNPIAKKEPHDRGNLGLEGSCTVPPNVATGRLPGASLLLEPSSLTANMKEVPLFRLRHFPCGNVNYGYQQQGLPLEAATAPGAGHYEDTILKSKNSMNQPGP
Experiment [3] addresses T2, Glucose-induced degradation protein 4 homolog/EML4-ALK (Homo sapiens, UniProt Q9UM73+Q9HC35+Q8IVV7). Briefly: PROTAC activity at GID4/EML4-ALK in human NCI-H3122 cells assessed as protein degradation at 1 uM measured for 48 hrs by immunoblot analysis. Type of experiment: cell-based.
Experiment [4] deals with T2, Glucose-induced degradation protein 4 homolog/EML4-ALK. Kind of experiment: PROTAC activity at GID4/EML4-ALK in human NCI-H3122 cells assessed as maximal protein degradation at 1 uM measured for 48 hrs by immunoblot analysis relative to control. It counts as cell-based.
Target sequence in this assay (Q8IVV7 whole entry partner): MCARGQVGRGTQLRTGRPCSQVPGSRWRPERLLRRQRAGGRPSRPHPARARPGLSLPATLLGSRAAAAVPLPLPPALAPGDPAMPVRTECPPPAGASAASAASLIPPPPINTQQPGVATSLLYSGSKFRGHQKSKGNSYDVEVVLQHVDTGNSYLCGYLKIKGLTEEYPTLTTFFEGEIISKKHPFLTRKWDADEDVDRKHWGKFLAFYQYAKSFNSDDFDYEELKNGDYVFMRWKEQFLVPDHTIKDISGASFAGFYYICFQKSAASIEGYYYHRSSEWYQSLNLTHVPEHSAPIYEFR
Target sequence in this assay (Q9HC35 whole entry partner): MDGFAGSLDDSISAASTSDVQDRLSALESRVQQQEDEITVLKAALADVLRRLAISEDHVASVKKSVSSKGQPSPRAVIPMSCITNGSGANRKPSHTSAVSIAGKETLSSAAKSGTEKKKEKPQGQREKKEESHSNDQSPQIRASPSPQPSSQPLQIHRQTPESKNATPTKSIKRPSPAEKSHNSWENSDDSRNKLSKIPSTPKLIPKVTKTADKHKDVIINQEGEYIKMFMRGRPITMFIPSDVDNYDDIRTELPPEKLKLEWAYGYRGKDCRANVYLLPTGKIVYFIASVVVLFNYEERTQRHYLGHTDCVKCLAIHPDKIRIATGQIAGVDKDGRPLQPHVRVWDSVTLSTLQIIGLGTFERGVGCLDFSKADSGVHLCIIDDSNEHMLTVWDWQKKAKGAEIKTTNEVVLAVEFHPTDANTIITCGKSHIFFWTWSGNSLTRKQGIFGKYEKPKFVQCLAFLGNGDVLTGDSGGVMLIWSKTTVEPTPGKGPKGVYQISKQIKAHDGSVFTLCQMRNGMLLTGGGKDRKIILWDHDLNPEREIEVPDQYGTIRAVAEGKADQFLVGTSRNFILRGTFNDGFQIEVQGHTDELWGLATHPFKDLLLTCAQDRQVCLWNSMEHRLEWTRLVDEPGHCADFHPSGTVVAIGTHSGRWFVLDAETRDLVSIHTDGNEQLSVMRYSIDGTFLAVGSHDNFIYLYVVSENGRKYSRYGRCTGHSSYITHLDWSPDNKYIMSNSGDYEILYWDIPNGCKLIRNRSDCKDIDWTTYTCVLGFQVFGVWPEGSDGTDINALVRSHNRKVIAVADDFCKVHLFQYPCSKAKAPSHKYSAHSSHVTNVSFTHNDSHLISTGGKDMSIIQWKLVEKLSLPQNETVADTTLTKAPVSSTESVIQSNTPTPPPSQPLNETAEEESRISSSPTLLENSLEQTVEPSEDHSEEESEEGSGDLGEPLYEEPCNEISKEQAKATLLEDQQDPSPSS
Target sequence in this assay (Q9UM73 19-1620 limits assumed): as the sequence (Q9UM73 19-1620 limits assumed) above
Experiment [5] deals with Platelet-derived growth factor receptor beta (Homo sapiens) (UniProt P09619). Briefly: Inhibition of PDGFRbeta (unknown origin) measured for 48 hrs at 10 uM relative to control.
In experiment [6] the target is T3, Bromodomain-containing protein 4 (Homo sapiens, UniProt O60885). Kind of experiment: Inhibition of BRD4 (unknown origin) at 0.01 umol/L relative to control. Conditions: dose 0.01 µmol/L.
Experiment [7] deals with T3, Bromodomain-containing protein 4. Briefly: Inhibition of BRD4 (unknown origin) at 1 micromol/L relative to control. The following applies: dose 1.0 µmol/L.
A further experiment deals with MV4-11. Kind of experiment: Antiproliferative activity against human MV4-11 cells. Type of experiment: functional, cell-based.
In a further experiment the test system is THP-1. Kind of experiment: Antiproliferative activity against human THP-1 cells. Type of experiment: functional, cell-based.
A further experiment relates to HL-60. Briefly: Antiproliferative activity against human HL-60 cells. It counts as functional, cell-based.
Experiment [8] concerns the target T4, Protein cereblon/Bromodomain-containing protein 4 (Homo sapiens, UniProt O60885+Q96SW2). Briefly: PROTAC activity at CRBN/BRD4 in human MV4-11 cells assessed as induction of degradation of BRD4 measured after 24 hrs by Western blot analysis. It counts as cell-based.
For experiment [9], the target named is T4, Protein cereblon/Bromodomain-containing protein 4. Kind of experiment: PROTAC activity at CRBN/BRD4 in human MV4-11 cells assessed as induction of degradation of BRD4 by measuring maximal degradation at 10 uM incubated after 24 hrs by Western blot analysis relative to control. Type of experiment: cell-based.
The test system of a further experiment is U-87 MG. Kind of experiment: Antiproliferative activity against human U87 cells. Type of experiment: functional, cell-based, U-87MG ATCC.
Another experiment relates to MCF7. Briefly: Antiproliferative activity against human MCF7 cells.
A further experiment has as its system T47D. Kind of experiment: Antiproliferative activity against human T47D cells.
The target in experiment [10] is Mitogen-activated protein kinase kinase kinase kinase 1 (Homo sapiens, UniProt Q92918). Kind of experiment: Inhibition of HPK1 (unknown origin).
Experiment [11] deals with LNCaP. Briefly: Antiproliferative activity against human LNCaP cells. Type of experiment: functional, cell-based.
The next experiment concerns LNCaP C4-2B. Kind of experiment: Antiproliferative activity against human LNCaP C4-2B cells. Type of experiment: functional, cell-based.
In a further experiment the test system is CWR22R. Briefly: Antiproliferative activity against human 22Rv1 cells. It counts as functional, cell-based.
The next experiment deals with MOLM-13. Kind of experiment: Antiproliferative activity against human MOLM-13 cells. Type of experiment: functional, cell-based.
The test system of the next experiment is Hs-578T. Kind of experiment: Antiproliferative activity against human Hs-578T cells. Type of experiment: functional, cell-based.
The target of experiment [12] is T3, Bromodomain-containing protein 4. Briefly: Binding affinity to BRD4 (unknown origin) assessed as dissociation constant.
In experiment [13] the target is Protein cereblon/Androgen receptor (Homo sapiens) (UniProt P10275+Q96SW2). Briefly: PROTAC activity at AR/CRBN in human LNCaP cells assessed as protein degradation measured by measuring maximal degradation at 5 uM incubated for 24 hrs by Western blot analysis relative to control. Type of experiment: cell-based.
Experiment [14] has as its system LNCaP. Briefly: Antiproliferative activity against human LNCAP cells assessed as reduction in cell viability incubated for 24 hrs by MTT assay. Type of experiment: functional, cell-based. (In general: Formazan colour is commonly taken as a measure of viable cells.)
For another experiment, the system named is HCT-116. Briefly: Antiproliferative activity against human HCT-116 cells assessed as reduction in cell viability incubated for 72 hrs by CCK-8 assay. Type of experiment: functional, cell-based. The following applies: HCT-116, 72 h.
In the next experiment the test system is Calu-6. Kind of experiment: Antiproliferative activity against human Calu-6 cells assessed as reduction in cell viability incubated for 72 hrs by CCK-8 assay. It counts as functional, cell-based. Conditions: Calu-6, 72 h.
A further experiment deals with A-375. Kind of experiment: Antiproliferative activity against human A-375 cells assessed as reduction in cell viability incubated for 72 hrs by CCK-8 assay. Type of experiment: functional, cell-based. The following applies: A-375, 72 h.
Experiment [15] addresses T5, Protein cereblon/Mitogen-activated protein kinase 3/Mitogen-activated protein kinase 1 (Homo sapiens, UniProt P27361+P28482+Q96SW2). Kind of experiment: PROTAC activity at CRBN/ERK1/2 in human Calu-6 cells assessed as induction of ERK1/2 degradation incubated for 48 hrs by Western blot analysis. Type of experiment: cell-based.
Experiment [16] concerns the target T5, Protein cereblon/Mitogen-activated protein kinase 3/Mitogen-activated protein kinase 1. Kind of experiment: PROTAC activity at CRBN/ERK1/2 in human HCT-116 cells assessed as induction of ERK1/2 degradation incubated for 48 hrs by Western blot analysis. It counts as cell-based.
Experiment [17] is described as follows: Upregulation of p53 protein expression in human A549 cells at 3.33 uM relative to control. Type of experiment: functional.
The subject of another experiment is A549. Kind of experiment: Antiproliferative activity against human A549 cells. It counts as functional, cell-based.
Experiment [18] can be described thus: Downregulation of MDM2 protein expression in human A549 cells at 1.11 uM relative to control. Type of experiment: functional.
A short description of experiment [19]: Downregulation of MDM2 protein expression in human A549 cells at 3.33 uM relative to control. Type of experiment: functional.
Experiment [20] can be described thus: Downregulation of MDM2 protein expression in human A549 cells at 10 uM relative to control. It counts as functional.
Experiment [21] is described as follows: Upregulation of p53 protein expression in human A549 cells at 1.11 uM relative to control. It counts as functional.
Experiment [22] is described as follows: Upregulation of p53 protein expression in human A549 cells at 10 uM relative to control. Type of experiment: functional.

The structures appear in SMILES notation. A value given as a limit tells only on which side of the number the result lay.

T5 sequence (P27361 whole entry): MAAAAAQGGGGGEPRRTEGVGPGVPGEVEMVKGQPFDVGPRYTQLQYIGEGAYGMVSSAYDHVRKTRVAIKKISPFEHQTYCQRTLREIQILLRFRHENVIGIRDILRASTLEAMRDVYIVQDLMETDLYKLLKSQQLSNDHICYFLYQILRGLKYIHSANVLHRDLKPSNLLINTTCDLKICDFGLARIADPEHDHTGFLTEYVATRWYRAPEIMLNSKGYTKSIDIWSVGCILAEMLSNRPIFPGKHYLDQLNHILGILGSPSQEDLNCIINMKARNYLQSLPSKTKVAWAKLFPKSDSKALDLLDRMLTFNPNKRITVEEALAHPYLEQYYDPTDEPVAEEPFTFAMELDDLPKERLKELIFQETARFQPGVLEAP
T5 sequence (P28482 whole entry): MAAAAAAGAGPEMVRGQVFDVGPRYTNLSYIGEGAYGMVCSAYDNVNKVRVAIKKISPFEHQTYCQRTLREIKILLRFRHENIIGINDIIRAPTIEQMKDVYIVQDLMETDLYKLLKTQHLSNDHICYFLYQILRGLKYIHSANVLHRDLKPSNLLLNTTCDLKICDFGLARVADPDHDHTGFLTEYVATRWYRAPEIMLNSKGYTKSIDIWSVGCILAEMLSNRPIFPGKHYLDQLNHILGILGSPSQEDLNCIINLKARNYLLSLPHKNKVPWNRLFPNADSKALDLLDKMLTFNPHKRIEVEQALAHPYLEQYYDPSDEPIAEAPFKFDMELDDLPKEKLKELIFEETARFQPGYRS
T5 sequence (Q96SW2 whole entry): as the sequence (Q96SW2 whole entry partner) above
T4 sequence (Q96SW2 whole entry, looked up, other chains not shown): as the sequence (Q96SW2 whole entry partner) above

Turning to `COc1cc(N2CCN(C(=O)CNc3cccc4c3C(=O)N(C3CCC(=O)NC3=O)C4=O)CC2)ccc1Nc1ncc(Cl)c(Nc2ccccc2S(=O)(=O)C(C)C)n1` (configuration not stated), the DC50 in [1] came out at 4.6 nM; in experiment [3] it was 358 nM. In addition, the Emax (usually the greatest response seen or fitted, relative to the assay's reference) was determined as 92.3% in experiment [2] and 81.3% in [4].
Turning to `O=C1CCC(N2Cc3c(NC(=O)CCCNC(=O)c4cc(Oc5ccc(NC(=O)Nc6ccc(Cl)c(C(F)(F)F)c6)cc5)ccn4)cccc3C2=O)C(=O)N1` (configuration not stated), the inhibition (commonly the change of the read-out against control, counted positive when it falls) in [5] is greater than 70%.
In the case of `Cc1cc(-c2cc(NC(=O)CCC(=O)NCCOCCOCCc3ccc4c(c3)C(=O)N(C3CCC(=O)NC3=O)C4=O)ccc2Oc2ccccc2)n2cc[nH]c(=O)c12` (configuration not stated), the inhibition was found to be 61.1% in experiment [6] and 92.3% in experiment [7]. For the same molecule, the figures for the IC50 in the experiment with MV4-11, in the experiment on THP-1 and in the experiment on HL-60 were 0.4 nM, 22.9 nM and 45.6 nM, respectively. In [8], the DC50 was found to be 0.75 nM. In addition, the Emax in experiment [9] worked out at 95%.
Take `Cc1ncsc1-c1ccc(CNC(=O)[C@@H]2C[C@@H](O)CN2C(=O)[C@@H](NC(=O)CCC(=O)Nc2ccc(-c3nncc4c3C3CC4CC3C(=O)NCCCC(=O)n3nc(N)c4c(-c5ccc(NC(=O)Nc6cccc(Cl)c6)cc5)cccc43)cc2)C(C)(C)C)cc1` (some centres not stated): the half-maximal inhibitory concentration (IC50) (commonly the concentration that gives 50% inhibition) with U-87 MG is 910 nM.
For `Nc1nc(NC2CCC(C#Cc3ccc(C(=O)Nc4ccc5c(c4)CN(C4CCC(=O)NC4=O)C5=O)cc3)CC2)sc1C(=O)c1ccccc1[N+](=O)[O-]` (configuration not stated), the IC50 in the experiment on MCF7 worked out at 28.9 nM; with T47D, 41.7 nM.
`COc1ccc(-c2c[nH]c3ccc(-c4ccc(N5CCN(C(=O)CCCCCNc6cccc7c6C(=O)N(C6CCC(=O)NC6=O)C7=O)CC5)cc4)cc23)cc1OC` (configuration not stated): in [10], half-maximal inhibition (IC50) was put at 614 nM.
As to `COc1ccc(Br)cc1S(=O)(=O)Nc1cc2c(C)noc2cc1OCCOCCOCCOCCOCCOCCOc1cc2onc(C)c2cc1NS(=O)(=O)c1cc(Br)ccc1OC`, the IC50 in the experiment with MV4-11 amounted to 450 nM; in the experiment with LNCaP [11] it was 525 nM; with LNCaP C4-2B, 930 nM; in the experiment on CWR22R it was 900 nM; with MOLM-13, 450 nM; in the experiment with Hs-578T it was 1360 nM. Further, the Kd (usually a measure of binding affinity in units of concentration) in [12] came out at 741 nM.
`CC1(C)C(=O)N(c2ccc(C#N)c(C(F)(F)F)c2)C(=S)N1CCCCCCCCC(=O)N1CCN(CCCCCCCCCCCCC(=O)NC23CC4CC(CC(C4)C2)C3)CC1`: the Emax in [13] is 57%. Further, the IC50 in the experiment with LNCaP [14] came to 4770 nM.
As to `Cc1cccc(CN2C(=O)c3cc(-c4nc(Nc5ccnc(C#CCCN(C)C)c5)ncc4C)cn3C[C@H]2C)n1`, the IC50 with HCT-116 was 2100 nM; in the experiment with Calu-6, 15900 nM; in the experiment with A-375, greater than 30000 nM. Besides, the DC50 is 85 nM in [15] and 102 nM in [16].
Regarding `COC(C)(C)CCC[C@@](C)(O)[C@H]1CC[C@]2(C)[C@@H]1[C@H](O)C[C@@H]1[C@@]3(C)CC[C@H](OCC(=O)N4CCN(CC5CCN(c6ccc7c(c6)CN(C6CCC(=O)NC6=O)C7=O)CC5)CC4)C(C)(C)[C@@H]3CC[C@]12C` (some centres not stated), the Activity was 138.01% in [17]; 33.78% in experiment [18]; 49.53% in [19]; 65.39% in experiment [20]; 133.45% in experiment [21]; 147.15% in [22]. In addition, inhibition in the experiment on A549 was half-maximal at 2160 nM (IC50).
